From US20210361731A1 (Phenolics, LLC, priority 2020, published 2021)

Tests used:
brain aging = conditions: 1 g daily, 12 weeks; cited from earlier work
Caco2 monolayer = assay: Permeability of α-GPC through a Caco2 monolayer in the presence and absence of blueberry polyphenol extract; type: in vitro ADME; design: cumulative L-α-GPC, averaged over runs: scale not given here; conditions: for cumulative L-α-GPC, averaged over runs: average of runs 1 and 2; for cumulative L-α-GPC: 5 mM α-GPC in DPBS alone or with 1 mg/ml blueberry polyphenol extract
Description: In another series of experiments, the permeability of α-GPC through a Caco2 monolayer was measured to determine whether the presence of a blueberry-based polyphenol extract affected permeability.
More particularly, donor GPC concentrations were reduced to 5 mM. […] This experiment consisted of two independent runs (as identified below as run 1 and run 2). […] The data from the runs is summarized in Table 2, illustrated in FIG. 2 (Total Alpha GPC permeability through a Caco2 monolayer) and averaged below in Table 3. The averaged data is illustrated in FIG. 3. In each of the graphs, the vertical axis units are cumulative L-α-GPC in μg/cm2 and the horizontal axis units are minutes.

[1] = test system: patients with probable senile dementia of Alzheimer's type; conditions: cited from earlier work
hippocampus of the rats = conditions: cited from earlier work
[2] = 100-300 mg/day; cited from earlier work
rats = conditions: 250 mg/kg injections for three weeks, three weeks after pilocarpine; cited from earlier work
[3] = test system: patients with dementia disorders; conditions: 1570 patients in 10 studies; cited from earlier work
[4] = test system: cognitive impairment due to Alzheimer's disease; conditions: 400 mg capsules three times daily; cited from earlier work
vegetarian subjects = conditions: 5 g/day for six weeks; cited from earlier work

For `NC(=O)CN1CC(O)CC1=O` (centres unmarked) [oxiracetam], the “clinical response in brain aging” value (brain aging) is listed as “early improvement which was maintained during the therapy but was rapidly attenuated after discontinuation of the therapy”.
For `C[N+](C)(C)CCOP(=O)([O-])OC[C@H](O)CO` [α-GPC, Alpha-glycerylphosphorylcholine], the “effect of α-GPC on permeation of the blueberry polyphenols through the Caco2 monolayer” value (Caco2 monolayer) was “did not significantly change”, the “cumulative L-α-GPC, averaged over runs” value (Caco2 monolayer; 15 min) was 0.128 μg/cm2 and the “cumulative L-α-GPC, averaged over runs” value (Caco2 monolayer; 30 min) was 0.471 μg/cm2. For the same compound, the “cumulative L-α-GPC, averaged over runs” value (Caco2 monolayer; 45 min) was 0.643 μg/cm2, the “cumulative L-α-GPC, averaged over runs” value (Caco2 monolayer; 60 min) was 0.815 μg/cm2 and the “cumulative L-α-GPC, averaged over runs” value (Caco2 monolayer; 75 min) was 1.017 μg/cm2. The “cumulative L-α-GPC, averaged over runs” value (Caco2 monolayer; 90 min) was 1.292 μg/cm2, the “cumulative L-α-GPC” value (Caco2 monolayer; run 1, 15 min) was 18.75 μg/cm2 and the “cumulative L-α-GPC” value (Caco2 monolayer; run 1, 30 min) was 41.37 μg/cm2. For the same compound, the “cumulative L-α-GPC” value (Caco2 monolayer; run 1, 45 min) was 67.92 μg/cm2, the “cumulative L-α-GPC” value (Caco2 monolayer; run 1, 60 min) was 103.2 μg/cm2 and the “cumulative L-α-GPC” value (Caco2 monolayer; run 1, 75 min) was 150.0 μg/cm2. The “cumulative L-α-GPC” value (Caco2 monolayer; run 1, 90 min) was 222.4 μg/cm2, the “cumulative L-α-GPC” value (Caco2 monolayer; run 2, 15 min) was 47.16 μg/cm2 and the “cumulative L-α-GPC” value (Caco2 monolayer; run 2, 30 min) was 200.9 μg/cm2. For the same compound, the “cumulative L-α-GPC” value (Caco2 monolayer; run 2, 45 min) was 262.8 μg/cm2, the “cumulative L-α-GPC” value (Caco2 monolayer; run 2, 60 min) was 316.1 μg/cm2 and the “cumulative L-α-GPC” value (Caco2 monolayer; run 2, 75 min) was 373.3 μg/cm2. The “cumulative L-α-GPC” value (Caco2 monolayer; run 2, 90 min) was 442.1 μg/cm2, the “improvements compared with the ST200 patients” value ([1]; ST200 1000 mg morning and 500 mg afternoon) was “significantly better” and the “intellectual and emotional impairments” value ([1]; oral 800 mg morning and 400 mg afternoon, six months) was “significantly improved”. The “acetylcholine release in the hippocampus” value (hippocampus of the rats; 75 mg/kg i.g.) was “able to increase acetylcholine release”, the “dose with maximum effect on acetylcholine release” value (hippocampus of the rats; i.g.) was 300 mg/kg and the “memory, concentration, and focus” value [2] was “helps maintain and improve”. The “peak power and force output during strenuous exercises” value [2] was “helps to increase”, the “clinical response in brain aging” value (brain aging) was “slower but more sustained” and the cognitive function (rats) was “improved”. The neurogenesis (rats) was “increased”, the “patient clinical results, cognitive symptoms of adult-onset dementia disorders” value [3] was “improved patient clinical results” and the “treatment of the cognitive symptoms of Alzheimer's disease” value [4] was “useful”.
In the case of `CN(CC(=O)O)C(=N)N` [creatine], the “working memory and intelligence” value (vegetarian subjects) is listed as “Positive results”.
